{"source": "ChEMBL document CHEMBL5360585", "about": "“Spectasterols, Aromatic Ergosterols with 6/6/6/5/5, 6/6/6/6, and 6/6/6/5 Ring Systems from Aspergillus spectabilis” (J Nat Prod, 2023)", "key": {"HL-60 [1]": {"system": "HL-60", "assay": "Induction of apoptosis in human HL-60 cells assessed as late apoptotic cells at 14 uM incubated for 48 hrs by Annexin V-FITC/PI staining based flow cytometric analysis (reference value: 4.53%)", "type": "functional"}, "HL-60 [2]": {"system": "HL-60", "assay": "Induction of cell cycle arrest in human HL-60 cells assessed as S phase cells at 14 uM incubated for 48 hrs (reference value: 32.3%)", "type": "functional"}, "HL-60 [3]": {"system": "HL-60", "assay": "Induction of cell cycle arrest in human HL-60 cells assessed as accumulation of G1 phase cells at 14 uM incubated for 48 hrs (reference value: 42.0%)", "type": "functional"}, "HL-60 [4]": {"system": "HL-60", "assay": "Induction of cell cycle arrest in human HL-60 cells assessed as G2 phase cells at 7 uM incubated for 48 hrs (reference value: 23.7%)", "type": "functional"}, "RAW264.7 [5]": {"system": "RAW264.7", "assay": "Antiinflammatory activity in LPS-induced mouse RAW264.7 cells assessed as reduction in iNOS mRNA expression at 5 to 20 uM incubated for 24 hrs by qRT-PCR analysis", "type": "functional, cell-based", "settings": "dose 5-20 µM"}, "RAW264.7 [6]": {"system": "RAW264.7", "assay": "Antiinflammatory activity in mouse RAW264.7 cells assessed as inhibition of LPS-induced nuclear translocation of NF-kappaB p65 preincubated with compound for 1 hrs followed by LPS stimulation and measured after 24 hrs by DAPI staining based immunofluorescence analysis", "type": "functional, cell-based", "settings": "dose 5-20 µM, time 25.0 hrs"}, "HL-60 [7]": {"system": "HL-60", "assay": "Induction of apoptosis in human HL-60 cells assessed as early apoptotic cells at 7 uM incubated for 48 hrs by Annexin V-FITC/PI staining based flow cytometric analysis (reference value: 11.0%)", "type": "functional"}, "RAW264.7 [8]": {"system": "RAW264.7", "assay": "Antiinflammatory activity in LPS-induced mouse RAW264.7 cells assessed as reduction in COX2 mRNA expression at 5 to 20 uM incubated for 24 hrs by qRT-PCR analysis", "type": "functional, cell-based", "settings": "dose 5-20 µM"}, "HL-60 [9]": {"system": "HL-60", "assay": "Induction of apoptosis in human HL-60 cells assessed as early apoptotic cells at 14 uM incubated for 48 hrs by Annexin V-FITC/PI staining based flow cytometric analysis (reference value: 11.0%)", "type": "functional"}, "SU-DHL-2": {"system": "SU-DHL-2", "assay": "Cytotoxicity against human SUDHL2 cells assessed as inhibition of cell growth incubated for 48 hrs by CCK8 assay", "type": "functional, cell-based", "settings": "SU-DHL-2, 48 h"}, "RAW264.7 [10]": {"system": "RAW264.7", "assay": "Antiinflammatory activity in mouse RAW264.7 cells assessed as inhibition of LPS-induced NO production preincubated with compound for 1 hrs followed by LPS stimulation and measured after 24 hrs by Griess reagent based method", "type": "functional, cell-based"}, "RAW264.7 [11]": {"system": "RAW264.7", "assay": "Antiinflammatory activity in LPS-induced mouse RAW264.7 cells assessed as reduction in IL-1beta mRNA expression at 5 to 20 uM incubated for 24 hrs by qRT-PCR analysis", "type": "functional, cell-based", "settings": "dose 5-20 µM"}, "RAW264.7 [12]": {"system": "RAW264.7", "assay": "Antiinflammatory activity in LPS-induced mouse RAW264.7 cells assessed as reduction in COX-2 protein expression by Western blot analysis", "type": "functional, cell-based", "settings": "dose 5-20 µM"}, "HL-60 [13]": {"system": "HL-60", "assay": "Induction of apoptosis in human HL-60 cells assessed as necrotic cells at 7 uM incubated for 48 hrs by Annexin V-FITC/PI staining based flow cytometric analysis (reference value: 0.39%)", "type": "functional"}, "HL-60 [14]": {"system": "HL-60", "assay": "Induction of apoptosis in human HL-60 cells assessed as late apoptotic cells at 7 uM incubated for 48 hrs by Annexin V-FITC/PI staining based flow cytometric analysis (reference value: 4.53%)", "type": "functional"}, "HL-60 [15]": {"system": "HL-60", "assay": "Induction of apoptosis in human HL-60 cells assessed as viable cells at 7 uM incubated for 48 hrs by Annexin V-FITC/PI staining based flow cytometric analysis (reference value: 84.1%)", "type": "functional", "settings": "read-out: Activity"}, "HL-60 [16]": {"system": "HL-60", "assay": "Induction of cell cycle arrest in human HL-60 cells assessed as S phase cells at 7 uM incubated for 48 hrs (reference value: 32.3%)", "type": "functional"}, "HL-60 [17]": {"system": "HL-60", "assay": "Induction of cell cycle arrest in human HL-60 cells assessed as G2 phase cells at 14 uM incubated for 48 hrs (reference value: 23.7%)", "type": "functional"}, "HL-60 [18]": {"system": "HL-60", "assay": "Induction of apoptosis in human HL-60 cells assessed as necrotic cells at 14 uM incubated for 48 hrs by Annexin V-FITC/PI staining based flow cytometric analysis (reference value: 0.39%)", "type": "functional"}, "HL-60 [19]": {"system": "HL-60", "assay": "Induction of cell cycle arrest in human HL-60 cells assessed as accumulation of G1 phase cells at 7 uM incubated for 48 hrs (reference value: 42.0%)", "type": "functional"}, "HL-60 [20]": {"system": "HL-60", "assay": "Induction of apoptosis in human HL-60 cells assessed as viable cells at 14 uM incubated for 48 hrs by Annexin V-FITC/PI staining based flow cytometric analysis (reference value: 84.1%)", "type": "functional", "settings": "read-out: Activity"}, "HL-60 [21]": {"system": "HL-60", "assay": "Cytotoxicity against human HL-60 cells assessed as inhibition of cell growth incubated for 48 hrs by CCK8 assay", "type": "functional, cell-based", "settings": "HL-60, 48 h"}}, "note": "Activity calls are given as the source filed them. The calls are words filed in the database; no cut-off is given here."}
{"smiles": "Cc1cc2c(c3c1C[C@@H](O)CC3)CC[C@@]1(C)[C@H]2CCC(=O)[C@@]1(C)/C=C/[C@H](C)C(C)C", "values": [{"measurement": "Activity", "setting": "HL-60 [1]", "result": 53.8, "unit": "%"}, {"measurement": "Activity", "setting": "HL-60 [2]", "result": 24.9, "unit": "%"}, {"measurement": "Activity", "setting": "HL-60 [3]", "result": 62.3, "unit": "%"}, {"measurement": "Activity", "setting": "HL-60 [4]", "result": 16.1, "unit": "%"}, {"measurement": "Activity", "setting": "RAW264.7 [5]", "result": "Active"}, {"measurement": "Activity", "setting": "RAW264.7 [6]", "result": "Dose-Dependent Effect"}, {"measurement": "Activity", "setting": "HL-60 [7]", "result": 12.1, "unit": "%"}, {"measurement": "Activity", "setting": "RAW264.7 [8]", "result": "Active"}, {"measurement": "Activity", "setting": "HL-60 [9]", "result": 21.9, "unit": "%"}, {"measurement": "IC50", "setting": "SU-DHL-2", "result": 6.9, "unit": "µM"}, {"measurement": "IC50", "setting": "RAW264.7 [10]", "result": 19.3, "unit": "µM"}, {"measurement": "Activity", "setting": "RAW264.7 [11]", "result": "Active"}, {"measurement": "Activity", "setting": "RAW264.7 [12]", "result": "Dose-Dependent Effect"}, {"measurement": "Activity", "setting": "HL-60 [13]", "result": 0.57, "unit": "%"}, {"measurement": "Activity", "setting": "HL-60 [14]", "result": 11, "unit": "%"}, {"measurement": "viability at 7 µM", "setting": "HL-60 [15]", "result": 76.3, "unit": "%"}, {"measurement": "Activity", "setting": "HL-60 [16]", "result": 24.7, "unit": "%"}, {"measurement": "Activity", "setting": "HL-60 [17]", "result": 9.7, "unit": "%"}, {"measurement": "Activity", "setting": "HL-60 [18]", "result": 2.95, "unit": "%"}, {"measurement": "Activity", "setting": "HL-60 [19]", "result": 53.9, "unit": "%"}, {"measurement": "viability at 14 µM", "setting": "HL-60 [20]", "result": 21.3, "unit": "%"}, {"measurement": "IC50", "setting": "HL-60 [21]", "result": 8.7, "unit": "µM"}]}
